According to patent US20060069132A1, “Azolecarboxamide herbicides” (priority 2004, published 2006):

Assays:
Test in all cases: Test E pre-/postemergence herbicide test
Settings in all cases: Preemergence
bipinnate beggarticks = type: in vivo, Bidens bipinnata
Source text: (§1) Seeds of plant species selected from bipinnate beggarticks (Bidens bipinnata L.), hairy beggarticks (Bidens radiata Thuill.), bermudagrass (Cynodon dactylon (L.) Pers.), Surinam grass (Urochloa decumbens (Staph) R. D. Webster, previously named Brachiaria decumbens Stapf), large crabgrass (Digitaria sanguinalis (L.) Scop.), green foxtail (Setaria viridis (L.) P. Beauv.), goosegrass (Eleusine indica (L.) Gaertn.), johnsongrass (Sorghum halepense (L.) Pers.), kochia (Kochia scoparia (L.) Schrad.), pitted morningglory (Ipomoea lacunosa L.), purple nutsedge (Cyperus rotundus L.), common ragweed (Ambrosia elatior L.), mustard (Brassica nigra (L.) W. D. J. Koch), guineagrass (Panicum maximum Jacq.), dallisgrass (Paspalum dilatatum Poir.), barnyardgrass (Echinochloa crus-galli (L). P. Beauv.), southern sandbur (Cenchrus echinatus L.), common sowthistle (Sonchus oleraceous L.), prickly sida (Sida spinosa L.), Italian ryegrass (Lolium multiflorum Lam.), common purslane (Portulaca oleracea L.), broadleaf signalgrass (Brachiaria platyphylla (Griseb.) Nash), common groundsel (Senecio vulgaris L.), common chickweed (Stellaria media (L.) Vill/Cyr.), tropical spiderwort (Commelina benghalensis L.), annual bluegrass (Poa annua L.), downy bromegrass (Bromus tectorum L.), itchgrass (Rottboellia cochinchinensis (L.) L.f.), quackgrass (Elytrigia repens (L.) Nevski), Canada horseweed (Erigeron Canadensis L.), field bindweed (Convolvulus arvensis L.), spotted spurge (Euphorbia maculata L.), common mallow (Malva sylvestris (=s silvestris) L.), and Russian thistle (Salsola kali L. ssp. Ruthenica (Iljin) Soo) were planted and treated preemergence with test chemicals formulated in a non-phytotoxic solvent mixture which included a surfactant.
(§2) At the same time, plants selected from these weed species were treated with postemergence applications of some of the test chemicals formulated in the same manner. Plants ranged in height from 2 to 18 cm (1- to 4-leaf stage) for postemergence treatments. Treated plants and controls were maintained in a greenhouse for 12 to 14 days, after which time all species were compared to controls and visually evaluated. Plant response ratings, summarized in Table E, are based on a scale of 0 to 100 where 0 is no effect and 100 is complete control. A dash (-) response means no test result.

johnsongrass = type: in vivo, Sorghum halepense
Source text: as §1, §2

pitted morningglory = type: in vivo, Ipomoea lacunosa
Source text: as §1, §2

common mallow = type: in vivo, Malva sylvestris
Source text: as §1, §2

downy bromegrass = type: in vivo, Bromus tectorum
Source text: as §1, §2

annual bluegrass = type: in vivo, Poa annua
Source text: as §1, §2

field bindweed = type: in vivo, Convolvulus arvensis
Source text: as §1, §2

prickly sida = type: in vivo, Sida spinosa
Source text: as §1, §2

purple nutsedge = type: in vivo, Cyperus rotundus
Source text: as §1, §2

Canada horseweed = type: in vivo, Erigeron Canadensis
Source text: as §1, §2

[1] = 250 g ai/ha, scale 0 (no effect) to 100 (complete control)
[2] = 500 g ai/ha, scale 0 (no effect) to 100 (complete control)

Compound | Plant response rating, Beggarticks, Bip. (bipinnate beggarticks; 62 g ai/ha, scale 0 to 100) | Plant response rating, Beggarticks, Bip. (bipinnate beggarticks; 125 g ai/ha, scale 0 to 100) | Plant response rating, Beggarticks, Bip. (bipinnate beggarticks; [1]) | Plant response rating, Beggarticks, Bip. (bipinnate beggarticks; [2]) | Plant response rating, Johnsongrass (johnsongrass; 62 g ai/ha, scale 0 to 100) | Plant response rating, Johnsongrass (johnsongrass; 125 g ai/ha, scale 0 to 100) | Plant response rating, Johnsongrass (johnsongrass; [1]) | Plant response rating, Johnsongrass (johnsongrass; [2]) | Plant response rating, Morningglory (pitted morningglory; 62 g ai/ha, scale 0 to 100) | Plant response rating, Morningglory (pitted morningglory; 125 g ai/ha, scale 0 to 100) | Plant response rating, Morningglory (pitted morningglory; [1]) | Plant response rating, Morningglory (pitted morningglory; [2]) | Plant response rating, Mallow (common mallow; 62 g ai/ha, scale 0 to 100) | Plant response rating, Mallow (common mallow; 125 g ai/ha, scale 0 to 100) | Plant response rating, Mallow (common mallow; [2]) | Plant response rating, Bromegrass, Downy (downy bromegrass; 62 g ai/ha, scale 0 to 100) | Plant response rating, Bromegrass, Downy (downy bromegrass; 125 g ai/ha, scale 0 to 100) | Plant response rating, Bromegrass, Downy (downy bromegrass; [1]) | Plant response rating, Bromegrass, Downy (downy bromegrass; [2]) | Plant response rating, Bluegrass (annual bluegrass; 62 g ai/ha, scale 0 to 100) | also measured
CCc1nn(C(C)(C)C)nc1C(=O)Nc1cccc(C(=S)N(C)C)c1 [Compound 395] | 40 | 100 | 100 | 100 | 30 | 80 | 90 | 90 | 20 | 40 | 75 | 75 | 20 | 50 | 60 | 40 | 40 | 95 | 95 | 30 | Plant response rating, Bluegrass (annual bluegrass; 125 g ai/ha, scale 0 to 100): 80; Plant response rating, Bluegrass (annual bluegrass; [1]): 95; Plant response rating, Bluegrass (annual bluegrass; [2]): 95; Plant response rating, Bindweed, Field (field bindweed; 62 g ai/ha, scale 0 to 100): 10; Plant response rating, Bindweed, Field (field bindweed; 125 g ai/ha, scale 0 to 100): 40; Plant response rating, Bindweed, Field (field bindweed; [1]): 60; Plant response rating, Bindweed, Field (field bindweed; [2]): 70; Plant response rating, Prickly Sida (prickly sida; 62 g ai/ha, scale 0 to 100): 60; Plant response rating, Prickly Sida (prickly sida; 125 g ai/ha, scale 0 to 100): 95; Plant response rating, Prickly Sida (prickly sida; [1]): 95; Plant response rating, Prickly Sida (prickly sida; [2]): 95; Plant response rating, Nutsedge, Purple (purple nutsedge; 125 g ai/ha, scale 0 to 100): 50; Plant response rating, Nutsedge, Purple (purple nutsedge; [1]): 70; Plant response rating, Nutsedge, Purple (purple nutsedge; [2]): 80; Plant response rating, Horseweed (Canada horseweed; 62 g ai/ha, scale 0 to 100): 90; Plant response rating, Horseweed (Canada horseweed; 125 g ai/ha, scale 0 to 100): 100; Plant response rating, Horseweed (Canada horseweed; [1]): 100; Plant response rating, Horseweed (Canada horseweed; [2]): 100
Cc1nn(C(C)(C)C)nc1C(=O)Nc1cccc(C(=O)N2CC=CC2)c1 [Compound 393] | 30 | 100 | 100 | 100 | 30 | 60 | 60 | 80 | 0 | 60 | 95 | 95 | 10 | 60 | 95 | 0 | 10 | 60 | 80 | 10 | Plant response rating, Mallow (common mallow; [1]): 95; Plant response rating, Bluegrass (annual bluegrass; 125 g ai/ha, scale 0 to 100): 30; Plant response rating, Bluegrass (annual bluegrass; [1]): 75; Plant response rating, Bluegrass (annual bluegrass; [2]): 95; Plant response rating, Bindweed, Field (field bindweed; 62 g ai/ha, scale 0 to 100): 0; Plant response rating, Bindweed, Field (field bindweed; 125 g ai/ha, scale 0 to 100): 20; Plant response rating, Bindweed, Field (field bindweed; [1]): 60; Plant response rating, Bindweed, Field (field bindweed; [2]): 70; Plant response rating, Prickly Sida (prickly sida; 62 g ai/ha, scale 0 to 100): 30; Plant response rating, Prickly Sida (prickly sida; 125 g ai/ha, scale 0 to 100): 70; Plant response rating, Prickly Sida (prickly sida; [1]): 75; Plant response rating, Prickly Sida (prickly sida; [2]): 100; Plant response rating, Nutsedge, Purple (purple nutsedge; [1]): 20; Plant response rating, Nutsedge, Purple (purple nutsedge; [2]): 100; Plant response rating, Horseweed (Canada horseweed; 62 g ai/ha, scale 0 to 100): 90; Plant response rating, Horseweed (Canada horseweed; 125 g ai/ha, scale 0 to 100): 95; Plant response rating, Horseweed (Canada horseweed; [1]): 100; Plant response rating, Horseweed (Canada horseweed; [2]): 100
